This note sets out measurements from patent US4623662A, “Antiatherosclerotic ureas and thioureas” (American Cyanamid Company, priority 1985, dated 1986).

Assay [1] concerns the target T1, fatty acyl CoA: cholesterol acyl transferase (ACAT) (Rattus norvegicus, UniProt O70536).
T1 construct: The supernatant, containing the microsomal fraction, served as the source of the cholesterol-esterifying enzyme; from tissue; host or cells: rat adrenals, supernatant of 1,000 x g centrifugation containing the microsomal fraction
T1 sequence (O70536 1-545): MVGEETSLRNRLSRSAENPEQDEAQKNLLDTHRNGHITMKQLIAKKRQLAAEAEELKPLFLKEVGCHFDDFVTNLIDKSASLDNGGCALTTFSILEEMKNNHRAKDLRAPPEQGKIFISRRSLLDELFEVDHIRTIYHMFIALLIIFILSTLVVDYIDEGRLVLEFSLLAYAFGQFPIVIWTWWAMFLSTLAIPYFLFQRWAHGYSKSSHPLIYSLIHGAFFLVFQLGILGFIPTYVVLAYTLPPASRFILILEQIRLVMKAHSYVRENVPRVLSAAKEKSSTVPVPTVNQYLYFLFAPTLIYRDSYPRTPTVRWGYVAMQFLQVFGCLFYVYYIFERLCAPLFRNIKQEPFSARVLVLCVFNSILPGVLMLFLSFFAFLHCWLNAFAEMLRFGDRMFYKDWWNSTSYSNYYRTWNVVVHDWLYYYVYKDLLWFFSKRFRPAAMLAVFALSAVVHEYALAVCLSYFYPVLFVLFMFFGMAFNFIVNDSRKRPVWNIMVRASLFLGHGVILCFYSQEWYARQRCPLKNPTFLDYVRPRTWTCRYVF
In words: Inhibition of fatty acyl CoA:cholesterol acyl transferase (ACAT), rat adrenal enzyme. Format: biochemical. In short, it runs like this: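 Enzyme source was the microsomal supernatant of rat adrenal homogenate (0.2M potassium phosphate, pH 7.4) with BSA, preincubated with compound (5.2 μg/ml final for single-point) for 10 min at 37° C. Then [14C]oleoyl CoA added, 10 min at 37° C. TLC-separated cholesteryl ester was counted; percent inhibition versus control, IC50 from several concentrations.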

Another assay deals with cholesterol absorption. As to the kind of experiment: Inhibition of cholesterol absorption in rats fed 1% cholesterol:0.5% cholic acid diet. Format: in vivo, male Sprague-Dawley rats. The settings on record: po, 336 h, rat, dose .03% of the diet, 2 weeks. In short, it runs like this: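 Male Sprague-Dawley rats (150-170 g) fed 1% cholesterol:0.5% cholic acid diet for 2 weeks with compound at 0.001, 0.003, 0.01 or 0.03% of diet. Serum cholesterol measured enzymatically; liver cholesterol from saponified large-lobe sample after petroleum ether extraction. Liver and serum sterol expressed as percent of untreated controls.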

The mark [2] stands for this setting: read-out: LS (liver sterol), percentage of control values.
Where [3] appears, read: read-out: SS (serum sterol), percentage of control values.
Setting [4] is: rat adrenal ACAT, final concentration 5.2 μg/ml, read-out: % Inhibition.

The structures appear in SMILES notation. Read-outs that look alike come from different tables or passages of the source.

A word on the inhibition: it is the percentage by which the read-out fell short of the control. The molecule `CC(C)(C)CCN(Cc1ccc(CC(C)(C)C)cc1)C(=O)Nc1ccc(F)cc1F` [1-(3,3-Dimethylbutyl)-1-[4-(2,2-dimethylpropyl)benzyl]-3-(2,4-difluorophenyl)urea] gave an inhibition at 5.2 µg/mL in assay [1] of 90%. Also, the response vs control in vivo at 0.03 % with cholesterol absorption (setting [2]) turned out to be 19%; with cholesterol absorption (setting [3]), 35%.
Taken in the same sequence, the figures for `Cc1cc(Cl)cc(C)c1NC(=O)N(CCC(C)(C)C)Cc1ccc(CC(C)(C)C)cc1` [1-(3,3-Dimethylbutyl)-1-[4-(2,2-dimethylpropyl)benzyl]-3-(4-chloro-2,6-dimethylphenyl)urea] were 90%, 11% and 31%.
`Cc1cc(Cl)ccc1NC(=O)N(CCC(C)(C)C)Cc1ccc(CC(C)(C)C)cc1` [1-(3,3-Dimethylbutyl)-1-[4-(2,2-dimethylpropyl)benzyl]-3-(4-chloro-2-methylphenyl)urea] registered an inhibition at 5.2 µg/mL in assay [1] of 90%. Further, the response vs control in vivo at 0.03 % with cholesterol absorption (setting [2]) was found to be 20%; with cholesterol absorption (setting [3]) it was 51%.
Consider `CCCCOc1ccc(CN(CCC(C)(C)C)C(=O)Nc2c(Cl)cc(Cl)cc2Cl)cc1` [1-(3,3-Dimethylbutyl)-1-[4-(n-butoxy)benzyl]-3-(2,4,6-trichlorophenyl)urea], for which, in assay [1], 5.2 µg/mL produced 90% inhibition. For the same molecule, the response vs control in vivo at 0.03 % with cholesterol absorption (setting [2]) is 20%; with cholesterol absorption (setting [3]), 52%.
As to `CCCCOc1ccc(CN(CCC(C)(C)C)C(=O)Nc2ccc(F)cc2F)cc1` [1-(3,3-Dimethylbutyl)-1-[4-(n-butoxy)benzyl]-3-(2,4-difluorophenyl)urea], in assay [1], the inhibition at 5.2 µg/mL is 90%. For the same molecule, the response vs control in vivo at 0.03 % was 32% with cholesterol absorption (setting [2]) and 42% in the assay on cholesterol absorption (setting [3]).
In the same order, the values of `CCCCOc1ccc(CN(CCC(C)(C)C)C(=O)Nc2ccc(Cl)cc2C)cc1` [1-(3,3-Dimethylbutyl)-1-[4-(n-butoxy)benzyl]-3-(4-chloro-2-methylphenyl)urea] are 90%, 22% and 61%.
Take `CCCCc1ccc(CN(CCC(C)(C)C)C(=O)Nc2c(Cl)cc(Cl)cc2Cl)cc1` [1-(3,3-Dimethylbutyl)-1-[4-(n-butyl)benzyl]-3-(2,4,6-trichlorophenyl)urea]: the inhibition at 5.2 µg/mL in assay [1] was 90%. Besides, the response vs control in vivo at 0.03 % turned out to be 13% in the assay on cholesterol absorption (setting [2]) and 37% in the assay with cholesterol absorption (setting [3]).
The molecule `CCCCc1ccc(CN(CCC(C)(C)C)C(=O)Nc2ccc(F)cc2F)cc1` [1-(3,3-Dimethylbutyl)-1-[4-(n-butyl)benzyl]-3-(2,4-difluorophenyl)urea] displayed an inhibition at 5.2 µg/mL in assay [1] of 90%. Further, the results for the response vs control in vivo at 0.03 % in the assay with cholesterol absorption (setting [2]) and in the assay on cholesterol absorption (setting [3]) were 30% and 39%, respectively.
As for `CCCCc1ccc(CN(CCC(C)(C)C)C(=O)Nc2c(C)cc(Cl)cc2C)cc1` [1-(3,3-Dimethylbutyl)-1-[4-(n-butyl)benzyl]-3-(4-chloro-2,6-dimethylphenyl)urea], in assay [1], the inhibition at 5.2 µg/mL stood at 90%. The response vs control in vivo at 0.03 % stood at 12% with cholesterol absorption (setting [2]) and 28% with cholesterol absorption (setting [3]).
Turning to `CCCCc1ccc(CN(CCC(C)(C)C)C(=O)Nc2ccc(Cl)cc2C)cc1` [1-(3,3-Dimethylbutyl)-1-[4-(n-butyl)benzyl]-3-(4-chloro-2-methylphenyl)urea], the inhibition at 5.2 µg/mL in assay [1] (setting [4]) was 90.5%. Besides, the values for the response vs control in vivo at 0.03 % in the assay on cholesterol absorption (setting [2]) and in the assay on cholesterol absorption (setting [3]) were 13% and 46%, respectively.
In the case of `CC(C)(C)CCN(Cc1ccccc1)C(=O)Nc1ccc(F)cc1F` [1-(3,3-Dimethylbutyl)-1-benzyl-3-(2,4-difluorophenyl)urea], the inhibition at 5.2 µg/mL in assay [1] turned out to be 90%. In addition, the response vs control in vivo at 0.03 % was determined as 70% in the assay on cholesterol absorption (setting [2]) and 71% in the assay with cholesterol absorption (setting [3]).
For the molecule `Cc1cc(Cl)ccc1NC(=O)N(CCC(C)(C)C)Cc1ccccc1` [1-(3,3-Dimethylbutyl)-1-benzyl-3-(4-chloro-2-methylphenyl)urea], in assay [1], the inhibition at 5.2 µg/mL came to 90%. The response vs control in vivo at 0.03 % with cholesterol absorption (setting [2]) is 51%; with cholesterol absorption (setting [3]), 64%.
For `Cc1ccc(NC(=O)N(Cc2ccc(C)c(C)c2)Cc2ccccc2Cl)c(C)c1` [1-(3,4-Dimethylbenzyl)-1-(2-chlorobenzyl)-3-(2,4-dimethylphenyl)urea], in assay [1] (setting [4]), the inhibition at 5.2 µg/mL was determined as 92.9%. Further, the response vs control in vivo at 0.03 % amounted to 15% in the assay on cholesterol absorption (setting [2]) and 44% in the assay with cholesterol absorption (setting [3]).
In the case of `O=C(Nc1cc(Cl)c(Cl)cc1Cl)N(Cc1ccc(Cl)cc1)Cc1cccc2ccccc12` [1-(4-Chlorobenzyl)-1-(1-naphthylmethyl)-3-(2,4,5-trichlorophenyl)urea], in assay [1] (setting [4]), the inhibition at 5.2 µg/mL stood at 86%. In addition, the results for the response vs control in vivo at 0.03 % with cholesterol absorption (setting [2]) and in the assay with cholesterol absorption (setting [3]) were 97% and 84%, respectively.
With `O=C(Nc1c(Cl)cc(Cl)cc1Cl)N(Cc1ccc(Cl)cc1)Cc1cccc2ccccc12` [1-(4-Chlorobenzyl)-1-(1-naphthylmethyl)-3-(2,4,6-trichlorophenyl)urea], in assay [1] (setting [4]), the inhibition at 5.2 µg/mL was 77%. Further, the response vs control in vivo at 0.03 % with cholesterol absorption (setting [2]) came to 12%; with cholesterol absorption (setting [3]), 38%.
Consider `O=C(Nc1ccc(Cl)cc1Cl)N(Cc1ccc(Cl)cc1)Cc1cccc2ccccc12` [1-(4-Chlorobenzyl)-1-(1-naphthylmethyl)-3-(2,4-dichlorophenyl)urea], for which, in assay [1] (setting [4]), the inhibition at 5.2 µg/mL turned out to be 92%. In addition, the response vs control in vivo at 0.03 % in the assay on cholesterol absorption (setting [2]) was 48%; in the assay on cholesterol absorption (setting [3]), 50%.
For `O=C(Nc1ccc(F)cc1F)N(Cc1ccc(Cl)cc1)Cc1cccc2ccccc12` [1-(4-Chlorobenzyl)-1-(1-naphthylmethyl)-3-(2,4-difluorophenyl)urea], the inhibition at 5.2 µg/mL in assay [1] (setting [4]) turned out to be 84%. Besides, the response vs control in vivo at 0.03 % stood at 30% in the assay on cholesterol absorption (setting [2]) and 45% in the assay with cholesterol absorption (setting [3]).
With `Cc1cc(Cl)ccc1NC(=O)N(Cc1ccc(Cl)cc1)Cc1cccc2ccccc12` [1-(4-Chlorobenzyl)-1-(1-naphthylmethyl)-3-(2-methyl-4-chlorophenyl)urea], in assay [1] (setting [4]), the inhibition at 5.2 µg/mL came to 94%. The response vs control in vivo at 0.03 % with cholesterol absorption (setting [2]) came to 17%; in the assay on cholesterol absorption (setting [3]), 35%.
With `O=C(Nc1cccc(C(F)(F)F)c1)N(Cc1ccc(Cl)cc1)Cc1cccc2ccccc12` [1-(4-Chlorobenzyl)-1-(1-naphthylmethyl)-3-(3-trifluoromethylphenyl)urea], the inhibition at 5.2 µg/mL in assay [1] (setting [4]) was 80%. Besides, the response vs control in vivo at 0.03 % is 92% with cholesterol absorption (setting [2]) and 87% in the assay on cholesterol absorption (setting [3]).
As to `Cc1ccc(NC(=O)N(Cc2ccc(-c3ccccc3)cc2)Cc2ccc(Cl)c(Cl)c2)c(C)c1` [1-(4-Phenylbenzyl)-1-(3,4-dichlorobenzyl)-3-(2,4-dimethylphenyl)urea], the inhibition at 5.2 µg/mL in assay [1] (setting [4]) was 36.3%. Also, the response vs control in vivo at 0.03 % in the assay on cholesterol absorption (setting [2]) came to 17%; with cholesterol absorption (setting [3]) it was 49%.
For `CCCCCOc1ccc(CN(Cc2ccc(CCCCC)cc2)C(=O)Nc2cc(Cl)c(Cl)cc2Cl)cc1` [1-(4-n-Pentylbenzyl)-1-(4-n-pentyloxybenzyl)-3-(2,4,5-trichlorophenyl)urea], in assay [1] (setting [4]), the inhibition at 5.2 µg/mL was 80%. For the same molecule, the response vs control in vivo at 0.03 % amounted to 92% in the assay with cholesterol absorption (setting [2]) and 85% in the assay with cholesterol absorption (setting [3]).
